Results from ChEMBL document CHEMBL4138146, “A Schmidt rearrangement-mediated synthesis of novel tetrahydro-benzo[1,4]diazepin-5-ones as potential anticancer and antiprotozoal agents” (Eur J Med Chem, 2017).

Tests used:
Assay type in all cases: functional
[1] = tested on: HT-29; experiment: Growth inhibition of human HT-29 cells assessed as cell growth at 10 uM incubated for 48 hrs by sulforhodamine B assay relative to control; settings: HT-29, 48 h, read-out: Activity
[2] = tested on: NCI/ADR-RES; experiment: Growth inhibition of human NCI/ADR-RES cells assessed as cell growth at 10 uM incubated for 48 hrs by sulforhodamine B assay relative to control; settings: read-out: Activity
[3] = tested on: A498; experiment: Growth inhibition of human A498 cells assessed as cell growth at 10 uM incubated for 48 hrs by sulforhodamine B assay relative to control; settings: A498, 48 h, read-out: Activity
[4] = tested on: SK-MEL-2; experiment: Growth inhibition of human SK-MEL-2 cells assessed as cell growth at 10 uM incubated for 48 hrs by sulforhodamine B assay relative to control; settings: SK-MEL-2, 48 h, read-out: Activity
[5] = tested on: SF-539; experiment: Growth inhibition of human SF539 cells assessed as cell growth at 10 uM incubated for 48 hrs by sulforhodamine B assay relative to control; settings: SF-539, 48 h, read-out: Activity
[6] = tested on: SNB-75; experiment: Growth inhibition of human SNB75 cells assessed as cell growth at 10 uM incubated for 48 hrs by sulforhodamine B assay relative to control; settings: SNB-75, 48 h, read-out: Activity
[7] = tested on: COLO 205; experiment: Growth inhibition of human COLO205 cells assessed as cell growth at 10 uM incubated for 48 hrs by sulforhodamine B assay relative to control; settings: COLO 205, 48 h, read-out: Activity
[8] = tested on: 786-0; experiment: Growth inhibition of human 786-0 cells assessed as cell growth at 10 uM incubated for 48 hrs by sulforhodamine B assay relative to control; settings: 786-0, 48 h, read-out: Activity
[9] = tested on: OVCAR-4; experiment: Growth inhibition of human OVCAR4 cells assessed as cell growth at 10 uM incubated for 48 hrs by sulforhodamine B assay relative to control; settings: OVCAR-4, 48 h, read-out: Activity
[10] = tested on: U-251; experiment: Growth inhibition of human U251 cells assessed as cell growth at 10 uM incubated for 48 hrs by sulforhodamine B assay relative to control; settings: U-251, 48 h, read-out: Activity
[11] = tested on: TK-10; experiment: Growth inhibition of human TK10 cells assessed as cell growth at 10 uM incubated for 48 hrs by sulforhodamine B assay relative to control; settings: TK-10, 48 h, read-out: Activity
[12] = tested on: CAKI-1; experiment: Growth inhibition of human Caki1 cells assessed as cell growth at 10 uM incubated for 48 hrs by sulforhodamine B assay relative to control; settings: CAKI-1, 48 h, read-out: Activity
[13] = tested on: MDA-MB-231; experiment: Growth inhibition of human MDA-MB-231 cells assessed as cell growth at 10 uM incubated for 48 hrs by sulforhodamine B assay relative to control; settings: MDA-MB-231, 48 h, read-out: Activity
[14] = tested on: NCI-H460; experiment: Growth inhibition of human NCI-H460 cells assessed as cell growth at 10 uM incubated for 48 hrs by sulforhodamine B assay relative to control; settings: NCI-H460, 48 h, read-out: Activity
[15] = tested on: OVCAR-8; experiment: Growth inhibition of human OVCAR8 cells assessed as cell growth at 10 uM incubated for 48 hrs by sulforhodamine B assay relative to control; settings: OVCAR-8, 48 h, read-out: Activity
[16] = tested on: PC-3; experiment: Growth inhibition of human PC3 cells assessed as cell growth at 10 uM incubated for 48 hrs by sulforhodamine B assay relative to control; settings: PC-3, 48 h, read-out: Activity
[17] = tested on: LOX IMVI; experiment: Growth inhibition of human LOXIMVI cells assessed as cell growth at 10 uM incubated for 48 hrs by sulforhodamine B assay relative to control; settings: read-out: Activity
[18] = tested on: ACHN; experiment: Growth inhibition of human ACHN cells assessed as cell growth at 10 uM incubated for 48 hrs by sulforhodamine B assay relative to control; settings: read-out: Activity
[19] = tested on: BT-549; experiment: Growth inhibition of human BT549 cells assessed as cell growth at 10 uM incubated for 48 hrs by sulforhodamine B assay relative to control; settings: BT-549, 48 h, read-out: Activity
[20] = tested on: SW-620; experiment: Growth inhibition of human SW620 cells assessed as cell growth at 10 uM incubated for 48 hrs by sulforhodamine B assay relative to control; settings: SW-620, 48 h, read-out: Activity
[21] = tested on: Hs-578T; experiment: Growth inhibition of human Hs 578T cells assessed as cell growth at 10 uM incubated for 48 hrs by sulforhodamine B assay relative to control; settings: read-out: Activity
[22] = tested on: UACC-62; experiment: Growth inhibition of human UACC62 cells assessed as cell growth at 10 uM incubated for 48 hrs by sulforhodamine B assay relative to control; settings: UACC-62, 48 h, read-out: Activity
[23] = tested on: SK-MEL-28; experiment: Growth inhibition of human SK-MEL-28 cells assessed as cell growth at 10 uM incubated for 48 hrs by sulforhodamine B assay relative to control; settings: SK-MEL-28, 48 h, read-out: Activity
[24] = tested on: NCI-H522; experiment: Growth inhibition of human NCI-H522 cells assessed as cell growth at 10 uM incubated for 48 hrs by sulforhodamine B assay relative to control; settings: NCI-H522, 48 h, read-out: Activity
[25] = tested on: KM12; experiment: Growth inhibition of human KM12 cells assessed as cell growth at 10 uM incubated for 48 hrs by sulforhodamine B assay relative to control; settings: KM12, 48 h, read-out: Activity
[26] = tested on: RPMI-8226; experiment: Growth inhibition of human RPMI8226 cells assessed as cell growth at 10 uM incubated for 48 hrs by sulforhodamine B assay relative to control; settings: RPMI-8226, 48 h, read-out: Activity
[27] = tested on: NCI-H23; experiment: Growth inhibition of human NCI-H23 cells assessed as cell growth at 10 uM incubated for 48 hrs by sulforhodamine B assay relative to control; settings: NCI-H23, 48 h, read-out: Activity
[28] = tested on: SK-OV-3; experiment: Growth inhibition of human SKOV3 cells assessed as cell growth at 10 uM incubated for 48 hrs by sulforhodamine B assay relative to control; settings: SK-OV-3, 48 h, read-out: Activity
[29] = tested on: A549; experiment: Growth inhibition of human A549/ATCC cells assessed as cell growth at 10 uM incubated for 48 hrs by sulforhodamine B assay relative to control; settings: A549, 48 h, read-out: Activity
[30] = tested on: MDA-MB-435; experiment: Growth inhibition of human MDA-MB-435 cells assessed as cell growth at 10 uM incubated for 48 hrs by sulforhodamine B assay relative to control; settings: MDA-MB-435, 48 h, read-out: Activity
[31] = tested on: Malme-3M; experiment: Growth inhibition of human MALME-3M cells assessed as cell growth at 10 uM incubated for 48 hrs by sulforhodamine B assay relative to control; settings: read-out: Activity
[32] = tested on: SK-MEL-5; experiment: Growth inhibition of human SK-MEL-5 cells assessed as cell growth at 10 uM incubated for 48 hrs by sulforhodamine B assay relative to control; settings: SK-MEL-5, 48 h, read-out: Activity
[33] = tested on: OVCAR-3; experiment: Growth inhibition of human OVCAR3 cells assessed as cell growth at 10 uM incubated for 48 hrs by sulforhodamine B assay relative to control; settings: OVCAR-3, 48 h, read-out: Activity

SMILES | growth at 10 µM [1] [%] | growth at 10 µM [2] [%] | growth at 10 µM [3] [%] | growth at 10 µM [4] [%] | growth at 10 µM [5] [%] | growth at 10 µM [6] [%] | growth at 10 µM [7] [%] | growth at 10 µM [8] [%] | growth at 10 µM [9] [%] | growth at 10 µM [10] [%] | growth at 10 µM [11] [%] | growth at 10 µM [12] [%] | growth at 10 µM [13] [%] | growth at 10 µM [14] [%] | growth at 10 µM [15] [%] | growth at 10 µM [16] [%] | growth at 10 µM [17] [%] | growth at 10 µM [18] [%] | growth at 10 µM [19] [%] | growth at 10 µM [20] [%] | also measured
O=C1NCC(c2cc3ccccc3[nH]c2=O)Nc2ccccc21 (centres undefined) | 98.3 | 111 | 104 | 100 | 96.5 | 99.6 | 107 | 100 | 104 | 102 | 87.8 | 88.1 | 97.9 | 105 | 103 | 93.2 | 98.5 | 99.7 | 96.3 | 102 | growth at 10 µM [21]: 99.4%; growth at 10 µM [22]: 98.3%; growth at 10 µM [23]: 103%; growth at 10 µM [24]: 88.6%; growth at 10 µM [25]: 103%; growth at 10 µM [26]: 106%; growth at 10 µM [27]: 97.4%; growth at 10 µM [28]: 89.9%; growth at 10 µM [29]: 92.4%; growth at 10 µM [30]: 107%; growth at 10 µM [31]: 96.8%; growth at 10 µM [32]: 97.2%; growth at 10 µM [33]: 111%
CCCCn1c(=O)c(C2CNC(=O)c3ccccc3N2)cc2ccccc21 (centres undefined) | 103 | 100 | 88.7 | 106 | 89.9 | 84 | 111 | 92.4 | 103 | 98 | 109 | 85.8 | 77.5 | 102 | 114 | 106 | 97.2 | 98.2 | 97.8 | 99.2 | growth at 10 µM [21]: 94.6%; growth at 10 µM [22]: 88.4%; growth at 10 µM [23]: 102%; growth at 10 µM [24]: 92.5%; growth at 10 µM [25]: 101%; growth at 10 µM [26]: 109%; growth at 10 µM [27]: 95%; growth at 10 µM [28]: 97.2%; growth at 10 µM [29]: 97.1%; growth at 10 µM [30]: 105%; growth at 10 µM [31]: 107%; growth at 10 µM [32]: 102%; growth at 10 µM [33]: 99.8%
Cc1cccc2cc(C3CNC(=O)c4ccccc4N3)c(=O)[nH]c12 (centres undefined) | 81.3 | 103 | 103 | 96.9 | 94.9 | 86.5 | 108 | 111 | 92.1 | 94.5 | 94.6 | 100 | 110 | 109 | 103 | 89.1 | 94.3 | 98.6 | 112 | 110 | growth at 10 µM [21]: 105%; growth at 10 µM [22]: 106%; growth at 10 µM [23]: 102%; growth at 10 µM [24]: 70%; growth at 10 µM [25]: 99.6%; growth at 10 µM [26]: 114%; growth at 10 µM [27]: 98.4%; growth at 10 µM [28]: 96.9%; growth at 10 µM [29]: 91.7%; growth at 10 µM [30]: 106%; growth at 10 µM [31]: 96%; growth at 10 µM [32]: 102%; growth at 10 µM [33]: 104%
